The target in test [1] is BRD4(BD1) (Homo sapiens (Human), UniProt O60885). Kind of test: In vitro enzyme inhibition assay (BRD4 AlphaScreen, H4-tetraacetyl peptide). It counts as binding. Conditions: BRD4(BD1) 2 nM, peptide 15 nM. On the procedure: Determination of the IC50 for the heterocyclic derivative BRD4 inhibitors disclosed herein was performed as follows. His-tagged […] was cloned, expressed and purified to homogeneity. Filipakopoulos et al., 468 Nature 1067 (2010). BRD4 binding and inhibition was assessed by monitoring the interaction of biotinylated H4-tetraacetyl peptide (AnaSpec, H4K5/8/12/16(Ac), biotin—labeled) with the target using the AlphaScreen technology (Life Technologies). In a 384-well ProxiPlate BRD4(BD1) (2 nM final) was combined with peptide (15 nM final) in 50 mM HEPES (pH 7.3), 10 mM NaCl, 0.25 mM TCEP, 0.1% (w/v) BSA, and 0.005% (w/v) Brij-35 either in the presence of DMSO (final 0.4% DMSO) or compound dilution series in DMSO. After 20 min incubation at RT, Alpha streptavidin donor beads and Nickel Chelate acceptor beads were added to a final concentration of 5 μg/mL. After 2 hr of equilibration, plates were read on an Envision instrument and the IC50 was calculated using a four parameter non-linear curve fit.
The ability of the compounds disclosed herein to inhibit BRD4 activity was quantified and the respective IC50 value was determined.

Test [2] has as its system Raji, human Burkitts lymphoma cells. Kind of test: Cell-MTS cellular proliferation assay, Raji. It counts as cell-based. The conditions noted are these: 168 hr incubation. Here is the method: (§1) A colorimetric cellular proliferation assay (Cell-MTS assay) was performed to assess the ability of the heterocyclic derivative […] inhibitors disclosed herein to effect the proliferation of established cancer cell lines.
(§2) The Cell-MTS assay is a 7-day plate-based colorimetric assay which quantifies the amount of newly generated NADH in the presence or absence of test compound. The NADH level is used for the quantification of cancer cell proliferation.
(§3) Established cancer cell lines with a variety of driving mutations were obtained from American Type Culture Collection (ATCC) and routinely passaged according to ATCC protocols. For routine assay, these cells were seeded at densities which enabled ˜90% confluence after 7 days of culture. Raji, human Burkitts lymphoma cells, (cMYC) were seeded at 15,000 cells per 96-well. HL-60, human proleukemia cells, (NRAS, p16, p53, c-Myc amplified) were seeded at 5,000 cells per 96-well. NCI-H460, human non-small cell lung cancer cells. (KRAS, PIK3CA, STLK11, p16) were seeded at 3,000 cells per 96-well. 24 hr after plating, cells received an 11 point dilution of test compound with final concentration ranges from 100 µM to 2.0 nM. Cells were incubated in the presence of compound for 168 hr at 37° C., and 5% CO2. At the end of this incubation period, 80 µL of media is removed and 20 µL of CellTiter 96® AQueous Non-Radioactive Cell Proliferation Assay solution (Promega) was added. The cells were incubated until the OD490 was >0.6. IC50 values were calculated using the IDBS XLfit software package and include background subtracted OD490 values and normalization to DMSO controls. Cellular proliferation IC50 values were uploaded and archived using the Chem Biography Platform. Table 3 provides the results of the in vitro enzyme inhibition assay experiments and the in vitro cell-based assay experiments performed with the compounds disclosed herein: […]
For orientation: Tetrazolium dyes change colour on reduction, which living cells bring about.

Test [3] relates to HL-60, human proleukemia cells. Kind of test: Cell-MTS cellular proliferation assay, HL-60. It counts as cell-based. The conditions noted are these: HL-60 cells, 168 hr incubation. On the procedure: as §1, §2, §3
In test [4] the test system is NCI-H460, human non-small cell lung cancer cells. The test can be described thus: Cell-MTS cellular proliferation assay, NCI-H460. It is filed as cell-based. Conditions: 168 hr incubation. On the procedure:
as §1, §2, §3

Usually IC50 stands for the concentration needed to halve the response being measured. A higher IC50 goes with lower potency.

Bounds are passed on as bounds.

Turning to `Cc1cc(-c2cc(NS(C)(=O)=O)c3c(F)nn(Cc4ccc(F)cc4)c3c2)cn(C)c1=O` [Example 64, N-[6-(1,5-dimethyl-6-oxopyridin-3-yl)-3-fluoro-1-[(4-fluorophenyl)methyl]indazol-4-yl]methanesulfonamide], the IC50 in test [1] is at most 500 nM; in test [2] (Homo sapiens) it was at most 500 nM; in test [3] (Homo sapiens), at most 500 nM; in test [4] (Homo sapiens), over 5000 nM.

Take `Cc1cc(-c2cc3c(nc(C)n3Cc3ccc(F)cc3)c(NS(C)(=O)=O)n2)cn(C)c1=O` [Example 60, N-[6-(1,5-dimethyl-6-oxopyridin-3-yl)-1-[(4-fluorophenyl)methyl]-2-methylimidazo[4,5-c]pyridin-4-yl]methanesulfonamide]: the IC50 in test [1] is at most 500 nM; in test [2] (Homo sapiens), at most 500 nM; in test [3] (Homo sapiens), at most 500 nM; in test [4] (Homo sapiens) it was over 5000 nM. With `Cc1cc(-c2nc(NS(C)(=O)=O)c3nc(C)n(Cc4ccc(F)cc4)c3n2)cn(C)c1=O` [Example 22, N-[2-(1,5-dimethyl-6-oxopyridin-3-yl)-9-[(4-fluorophenyl)methyl]-8-methylpurin-6-yl]methanesulfonamide], in test [1], the IC50 is at most 500 nM. With `CCS(=O)(=O)Nc1cc(-c2cn(C)c(=O)c3ccccc23)c2oc(C3CC3)cc2c1` [Example 82, N-[2-cyclopropyl-7-(2-methyl-1-oxoisoquinolin-4-yl)-1-benzofuran-5-yl]ethanesulfonamide], the IC50 in test [1], in test [2] (Homo sapiens), in test [3] (Homo sapiens) and in test [4] (Homo sapiens) was at most 500 nM each time. Take `COc1cc2c(cc1-c1cc(C)c(=O)n(C)c1)S(=O)(=O)N(C)C2` [Example 3, 5-(5-methoxy-2-methyl-1,1-dioxo-3H-1,2-benzothiazol-6-yl)-1,3-dimethylpyridin-2-one]: the concentration for half-maximal inhibition (IC50) in test [1] is at most 500 nM; in test [2] (Homo sapiens) it was over 5000 nM; in test [3] (Homo sapiens), 500 to 5000 nM; in test [4] (Homo sapiens), over 5000 nM. With `Cc1cc(-c2cc(S(C)(=O)=O)ccc2OCC2CC2)c2n(c1=O)CCC2F` (racemic) [Example 90, (±)-8-[2-(cyclopropylmethoxy)-5-methylsulfonylphenyl]-1-fluoro-6-methyl-2,3-dihydro-1H-indolizin-5-one], the concentration for half-maximal inhibition (IC50) in test [1] is at most 500 nM. On the same count and under the same terms, under `CCS(=O)(=O)c1cc(-c2cc(C)c(=O)n(C)c2)cc2c1nc(C)n2CC1CC1` [Example 69, 5-[3-(cyclopropylmethyl)-7-ethylsulfonyl-2-methylbenzimidazol-5-yl]-1,3-dimethylpyridin-2-one] stands at most 500 nM.

`CCS(=O)(=O)Nc1cc(-c2cc(C)c(=O)n(C)c2)cc2c1nc(OC)n2CC1CC1` [Example 103, N-[1-(cyclopropylmethyl)-6-(1,5-dimethyl-6-oxopyridin-3-yl)-2-methoxybenzimidazol-4-yl]ethanesulfonamide] came in with an IC50 in test [1] of at most 500 nM. The same measure, in the same setting: under `CN1Cc2cc(Oc3ccc(F)cc3F)c(-c3ccc(=O)n(C)c3)cc2S1(=O)=O` [Example 12, 5-[5-(2,4-difluorophenoxy)-2-methyl-1,1-dioxo-3H-1,2-benzothiazol-6-yl]-1-methylpyridin-2-one] stands at most 500 nM; under `CCc1nc2c(NS(C)(=O)=O)cc(-c3cc(C)c(=O)n(C)c3)cc2n1CC1CC1` [Example 74, N-[1-(cyclopropylmethyl)-6-(1,5-dimethyl-6-oxopyridin-3-yl)-2-ethylbenzimidazol-4-yl]methanesulfonamide], at most 500 nM. Same read-out and setting: under `Cc1cc(-c2cc(S(C)(=O)=O)ccc2OCC2CC2)c2n(c1=O)CCC2(F)F` [Example 89, 8-[2-(cyclopropylmethoxy)-5-methylsulfonylphenyl]-1,1-difluoro-6-methyl-2,3-dihydroindolizin-5-one] stands 500 to 5000 nM; under `Cc1cc(-c2nc(NS(C)(=O)=O)c3nc(C)n(CC4CC4)c3n2)cn(C)c1=O` [Example 81, N-[9-(cyclopropylmethyl)-2-(1,5-dimethyl-6-oxopyridin-3-yl)-8-methylpurin-6-yl]methanesulfonamide], at most 500 nM. On the same count and under the same terms, under `CCS(=O)(=O)Nc1cc(-c2cc(C)c(=O)n(C)c2)cc2c1c(F)nn2Cc1ccc(F)cc1` [Example 105, N-[6-(1,5-dimethyl-6-oxopyridin-3-yl)-3-fluoro-1-[(4-fluorophenyl)methyl]indazol-4-yl]ethanesulfonamide] stands at most 500 nM.

In the case of `Cc1cc(-c2cc(NS(C)(=O)=O)c3nc(C)n([C@H](C)c4ccccc4)c3c2)cn(C)c1=O` [Example 45, N-[6-(1,5-dimethyl-6-oxopyridin-3-yl)-2-methyl-1-[(1R)-(1-phenylethyl)]benzimidazol-4-yl]methanesulfonamide], the half-inhibitory concentration (IC50) in test [2] was at most 500 nM; in test [3], at most 500 nM; in test [4] it was 500 to 5000 nM. `COc1cc(-c2cc(CS(C)(=O)=O)cc3nc(C4CC4)oc23)cn(C)c1=O` [Example 63, 5-[2-cyclopropyl-5-(methylsulfonylmethyl)-1,3-benzoxazol-7-yl]-3-methoxy-1-methylpyridin-2-one] registered a concentration for half-maximal inhibition (IC50) in test [1] of at most 500 nM.

In test [1], `Cc1cc(-c2cc3c(S(C)(=O)=O)cccc3n2CC2CC2)cn(C)c1=O` [Example 76, 5-[1-(cyclopropylmethyl)-4-methylsulfonylindol-2-yl]-1,3-dimethylpyridin-2-one] came in with a concentration for half-maximal inhibition (IC50) of at most 500 nM. The same measure, in the same setting: under `CCS(=O)(=O)Nc1cc(-c2cn(C)c(=O)c3ccccc23)c2nc(C3CC3)n(C)c2c1` [Example 55, N-[2-cyclopropyl-3-methyl-7-(2-methyl-1-oxoisoquinolin-4-yl)benzimidazol-5-yl]ethanesulfonamide] stands at most 500 nM. Still for that read-out and setting: the value for `Cc1cc(-c2cc(NS(C)(=O)=O)c3c(F)nn(Cc4ccccc4)c3c2)cn(C)c1=O` [Example 104, N-[1-benzyl-6-(1,5-dimethyl-6-oxopyridin-3-yl)-3-fluoroindazol-4-yl]methanesulfonamide] was at most 500 nM. Same read-out and setting: the value for `CCc1cc2cc(S(C)(=O)=O)cc(-c3cc(C)c(=O)n(C)c3)c2o1` [Example 21, 5-(2-ethyl-5-methylsulfonyl-1-benzofuran-7-yl)-1,3-dimethylpyridin-2-one] was at most 500 nM. In test [1], `CCS(=O)(=O)Nc1cc(-c2cc(C)c(=O)n(C)c2)c2nc(C3CC3)n(C)c2c1` [Example 54, N-[2-cyclopropyl-7-(1,5-dimethyl-6-oxopyridin-3-yl)-3-methylbenzimidazol-5-yl]ethanesulfonamide] returned an IC50 of at most 500 nM. The same measure, in the same setting: under `CCS(=O)(=O)Nc1cc(-c2cc(C)c(=O)n(C)c2)cc2c1c(F)nn2Cc1ccccc1` [Example 106, N-[1-benzyl-6-(1,5-dimethyl-6-oxopyridin-3-yl)-3-fluoroindazol-4-yl]ethanesulfonamide] stands at most 500 nM; under `Cc1cc(-c2cc3c(S(C)(=O)=O)cccc3n2CCC2CC2)cn(C)c1=O` [Example 77, 5-[1-(2-cyclopropylethyl)-4-methylsulfonylindol-2-yl]-1,3-dimethylpyridin-2-one], at most 500 nM. Still for that read-out and setting: the value for `Cc1cc(-c2cc(S(C)(=O)=O)cc3cc(-c4ccccc4)oc23)cn(C)c1=O` [Example 25, 1,3-dimethyl-5-(5-methylsulfonyl-2-phenyl-1-benzofuran-7-yl)pyridin-2-one] was at most 500 nM. The same measure, in the same setting: the value for `Cn1cc(-c2cc3c(S(C)(=O)=O)cccc3n2CC2CC2)c2ccccc2c1=O` [Example 78, 4-[1-(cyclopropylmethyl)-4-methylsulfonylindol-2-yl]-2-methylisoquinolin-1-one] was at most 500 nM; that for `CCn1c(-c2cc(C)c(=O)n(C)c2)cc2c(S(C)(=O)=O)cccc21` [Example 75, 5-(1-ethyl-4-methylsulfonylindol-2-yl)-1,3-dimethylpyridin-2-one] was at most 500 nM; that for `CCS(=O)(=O)c1cc(-c2cc(OC)c(=O)n(C)c2)cc2c1nc(C)n2CC1CC1` [Example 70, 5-[3-(cyclopropylmethyl)-7-ethylsulfonyl-2-methylbenzimidazol-5-yl]-3-methoxy-1-methylpyridin-2-one] was at most 500 nM.
